{"source": "patent US8759098B2", "about": "“Method for cloning pluripotent stem cells” (Boston Biomedical Research Institute, Inc., priority 2009, dated 2014)", "type_in_all_cases": "cell-based, mouse", "key": {"[1]": {"test_system": "reprogramming genes (Oct4, Sox2, Klf4, Myc, Lin28) in Panstra-25 - Xn responsive", "assay": "Micro-array expression of reprogramming gene mRNAs, Panstra-25", "excerpt": "(§1) Table 2. Micro-array expression levels for described iPSC reprogramming gene mRNAs in SACK-derived mouse pancreatic stem cell strains. […] Panstra-11 is a non-responsive strain.\n(§2) All the described induced pluripotent stem cell (iPSC) reprogramming genes are detected in two cell strains derived with the suppression of asymmetric cell kinetics (SACK)-agent xanthine (Xn). The SACK strains were derived from pancreatic islets of adult xanthine phosphoribosyl transferase (XPRT)-transgenic mice. The derivation of such strains requires both the XPRT-transgenic genotype and Xn."}, "[2]": {"test_system": "reprogramming genes (Oct4, Sox2, Klf4, Myc, Lin28) in Panstra-11-Xn Non-responsive", "assay": "Micro-array expression of reprogramming gene mRNAs, Panstra-11", "excerpt": "as §1, §2"}, "[3]": {"test_system": "SACK-responsive, Pdx1-positive Panstra-25 pancreatic stem cells", "assay": "Gene-free iPSC reprogramming on STO feeders, colony phenotypes, Panstra-25", "settings": "for Estimated gene-free iPSC colony formation efficiency, ES, AP+ (iPSC state) / Estimated gene-free iPSC colony formation efficiency, ES, AP− / Estimated gene-free iPSC colony formation efficiency, Fl, AP+ / Estimated gene-free iPSC colony formation efficiency, Fl, AP− / Phenotype ES, AP+ (iPSC state) of individual cell clones following expansion, clones/total / Phenotype ES, AP+ (iPSC state) of individual cell clones following expansion, percent / Phenotype ES, AP− of individual cell clones following expansion, clones/total / Phenotype ES, AP− of individual cell clones following expansion, percent / Phenotype Fl, AP+ of individual cell clones following expansion, clones/total / Phenotype Fl, AP+ of individual cell clones following expansion, percent / Phenotype Fl, AP− of individual cell clones following expansion, clones/total / Phenotype Fl, AP− of individual cell clones following expansion, percent: Panstra-25, 1 mM Xn", "description": "Each tested SACK-derived cell strain was cultured on STO cell feeder monolayers in control medium with 10% DFBS, dialyzed fetal bovine serum (DFBS) or either of two commercial media for culture of murine embryonic stem cells (ESCs) and for the culture of reprogrammed cells such as iPSCs. Each medium condition was evaluated with or without supplementation with 1 mM xanthine (Xn). P/S denotes routine use of the antibiotics penicillin and streptomycin.\nThe method is an original pharmacological procedure for producing pluripotent stem cells. Cell strains derived in xanthine (Xn)-supplemented medium, by the method of suppression of asymmetric cell kinetics (SACK), were cultured in commercial media specified for the culture and/or production of pluripotent stem cells such as embryonic stem cells and iPSCs. Approximately 150,000 cells were plated on confluent STO cell feeders (i.e., mouse embryonic fibroblasts pre-treated with mitomycin C) in 10-cm culture dishes. In 2 weeks, iPSC-like cell colonies were detected.\nTo establish clonal strains, single colonies were picked, cultured in individual wells, and expanded for further study and cryo-preservation. A high fraction of the derived cell clones have morphological and biochemical properties indicative of iPSC cells.\nTissue-specific stem cells (e.g., Panstra-25 and Panstra-12 mouse pancreatic stem cell strains in the instant example) were cultured on mitomycin C-treated STO cell monolayers in commercial embryonic stem cell medium supplemented with the purine salvage base xanthine at 1 mM concentration (FIG. 4). Within 2-3 weeks of culture under otherwise standard conditions, cell colonies with embryonic stem cell-like morphology developed (FIG. 7B). These colonies were removed by mild trypsin treatment, transferred to individual cell culture wells prepared with STO cell feeders, and expanded in the respective embryonic stem cell culture medium supplemented with 1 mM xanthine (FIG. 5). The expanded cell clones expressed alkaline phosphatase (FIG. 8), a biochemical biomarker for the pluripotent phenotype of embryonic stem cells and iPSC cells. […] Xn supplementation increased the average production efficiency by as much as 3-fold (Table 6)."}}}
{"smiles": "O=c1[nH]c(=O)c2[nH]cnc2[nH]1", "note": "[Xn, xanthine]", "values": [{"measurement": "Klf4 expression (gene micro-array data)", "setting": "[1]; Panstra-25, Xn", "value": 31.8}, {"measurement": "Lin28 expression (gene micro-array data)", "setting": "[1]; Panstra-25, Xn", "value": 1.0}, {"measurement": "Myc expression (gene micro-array data)", "setting": "[1]; Panstra-25, Xn", "value": 35.5}, {"measurement": "Oct4 expression (gene micro-array data)", "setting": "[1]; Panstra-25, Xn", "value": 2.3}, {"measurement": "Sox2 expression (gene micro-array data)", "setting": "[1]; Panstra-25, Xn", "value": 0.2}, {"measurement": "Klf4 and Myc mRNA expression in response to culture in Xn", "setting": "[1]; SACK-derived strains, Table 2", "value": "increased mRNA expression"}, {"measurement": "Klf4 expression (gene micro-array data)", "setting": "[2]", "value": 21.6}, {"measurement": "Lin28 expression (gene micro-array data)", "setting": "[2]", "value": 0.9}, {"measurement": "Myc expression (gene micro-array data)", "setting": "[2]", "value": 19.6}, {"measurement": "Oct4 expression (gene micro-array data)", "setting": "[2]", "value": 2.6}, {"measurement": "Sox2 expression (gene micro-array data)", "setting": "[2]", "value": 0.1}, {"measurement": "iPSC (gene-free iPSC reprogramming)", "setting": "[3]; Panstra 25, SACK agent Xn", "value": "Yes"}, {"measurement": "Estimated gene-free iPSC colony formation efficiency, ES, AP+ (iPSC state)", "setting": "[3]; DFBS", "value": 0.000, "unit": "%"}, {"measurement": "Estimated gene-free iPSC colony formation efficiency, ES, AP−", "setting": "[3]; DFBS", "value": 0.000, "unit": "%"}, {"measurement": "Estimated gene-free iPSC colony formation efficiency, Fl, AP+", "setting": "[3]; DFBS", "value": 0.000, "unit": "%"}, {"measurement": "Estimated gene-free iPSC colony formation efficiency, Fl, AP−", "setting": "[3]; DFBS", "value": 0.059, "unit": "%"}, {"measurement": "Phenotype ES, AP+ (iPSC state) of individual cell clones following expansion, clones/total", "setting": "[3]; DFBS", "value": "0/22"}, {"measurement": "Phenotype ES, AP+ (iPSC state) of individual cell clones following expansion, percent", "setting": "[3]; DFBS", "value": 0, "unit": "%"}, {"measurement": "Phenotype ES, AP− of individual cell clones following expansion, clones/total", "setting": "[3]; DFBS", "value": "0/22"}, {"measurement": "Phenotype ES, AP− of individual cell clones following expansion, percent", "setting": "[3]; DFBS", "value": 0, "unit": "%"}, {"measurement": "Phenotype Fl, AP+ of individual cell clones following expansion, clones/total", "setting": "[3]; DFBS", "value": "0/22"}, {"measurement": "Phenotype Fl, AP+ of individual cell clones following expansion, percent", "setting": "[3]; DFBS", "value": 0, "unit": "%"}, {"measurement": "Phenotype Fl, AP− of individual cell clones following expansion, clones/total", "setting": "[3]; DFBS", "value": "22/22"}, {"measurement": "Phenotype Fl, AP− of individual cell clones following expansion, percent", "setting": "[3]; DFBS", "value": 100, "unit": "%"}, {"measurement": "Estimated gene-free iPSC colony formation efficiency, ES, AP+ (iPSC state)", "setting": "[3]; KOSR", "value": 0.016, "unit": "%"}, {"measurement": "Estimated gene-free iPSC colony formation efficiency, ES, AP−", "setting": "[3]; KOSR", "value": 0.037, "unit": "%"}, {"measurement": "Estimated gene-free iPSC colony formation efficiency, Fl, AP+", "setting": "[3]; KOSR", "value": 0.000, "unit": "%"}, {"measurement": "Estimated gene-free iPSC colony formation efficiency, Fl, AP−", "setting": "[3]; KOSR", "value": 0.000, "unit": "%"}, {"measurement": "Phenotype ES, AP+ (iPSC state) of individual cell clones following expansion, clones/total", "setting": "[3]; KOSR", "value": "6/20"}, {"measurement": "Phenotype ES, AP+ (iPSC state) of individual cell clones following expansion, percent", "setting": "[3]; KOSR", "value": 30, "unit": "%"}, {"measurement": "Phenotype ES, AP− of individual cell clones following expansion, clones/total", "setting": "[3]; KOSR", "value": "14/20"}, {"measurement": "Phenotype ES, AP− of individual cell clones following expansion, percent", "setting": "[3]; KOSR", "value": 70, "unit": "%"}, {"measurement": "Phenotype Fl, AP+ of individual cell clones following expansion, clones/total", "setting": "[3]; KOSR", "value": "0/20"}, {"measurement": "Phenotype Fl, AP+ of individual cell clones following expansion, percent", "setting": "[3]; KOSR", "value": 0, "unit": "%"}, {"measurement": "Phenotype Fl, AP− of individual cell clones following expansion, clones/total", "setting": "[3]; KOSR", "value": "0/20"}, {"measurement": "Phenotype Fl, AP− of individual cell clones following expansion, percent", "setting": "[3]; KOSR", "value": 0, "unit": "%"}, {"measurement": "Estimated gene-free iPSC colony formation efficiency, ES, AP+ (iPSC state)", "setting": "[3]; hiFBS", "value": 0.008, "unit": "%"}, {"measurement": "Estimated gene-free iPSC colony formation efficiency, ES, AP−", "setting": "[3]; hiFBS", "value": 0.027, "unit": "%"}, {"measurement": "Estimated gene-free iPSC colony formation efficiency, Fl, AP+", "setting": "[3]; hiFBS", "value": 0.003, "unit": "%"}, {"measurement": "Estimated gene-free iPSC colony formation efficiency, Fl, AP−", "setting": "[3]; hiFBS", "value": 0.013, "unit": "%"}, {"measurement": "Phenotype ES, AP+ (iPSC state) of individual cell clones following expansion, clones/total", "setting": "[3]; hiFBS", "value": "3/19"}, {"measurement": "Phenotype ES, AP+ (iPSC state) of individual cell clones following expansion, percent", "setting": "[3]; hiFBS", "value": 16, "unit": "%"}, {"measurement": "Phenotype ES, AP− of individual cell clones following expansion, clones/total", "setting": "[3]; hiFBS", "value": "10/19"}, {"measurement": "Phenotype ES, AP− of individual cell clones following expansion, percent", "setting": "[3]; hiFBS", "value": 53, "unit": "%"}, {"measurement": "Phenotype Fl, AP+ of individual cell clones following expansion, clones/total", "setting": "[3]; hiFBS", "value": "1/19"}, {"measurement": "Phenotype Fl, AP+ of individual cell clones following expansion, percent", "setting": "[3]; hiFBS", "value": 5, "unit": "%"}, {"measurement": "Phenotype Fl, AP− of individual cell clones following expansion, clones/total", "setting": "[3]; hiFBS", "value": "5/19"}]}
